What was measured:
[1] = molecular target: T1, small intestinal α-glucosidase (saccharase) (Rattus norvegicus, UniProt P23739); assay: Concentration for 50% inhibition, small intestinal α-glucosidase, sucrose substrate; assay type: biochemical; conditions: rat intestinal brush border membrane vesicles; substrate sucrose (74 mM); pH6.0; 37° C., 30 minutes; read-out: IC50 (μg/ml) Sucrose (converted)
T1 construct: Rat intestinal brush border membrane vesicles were prepared; from tissue; host or cells: rat small intestine, brush border membrane vesicles
T1 sequence (P23739 whole entry): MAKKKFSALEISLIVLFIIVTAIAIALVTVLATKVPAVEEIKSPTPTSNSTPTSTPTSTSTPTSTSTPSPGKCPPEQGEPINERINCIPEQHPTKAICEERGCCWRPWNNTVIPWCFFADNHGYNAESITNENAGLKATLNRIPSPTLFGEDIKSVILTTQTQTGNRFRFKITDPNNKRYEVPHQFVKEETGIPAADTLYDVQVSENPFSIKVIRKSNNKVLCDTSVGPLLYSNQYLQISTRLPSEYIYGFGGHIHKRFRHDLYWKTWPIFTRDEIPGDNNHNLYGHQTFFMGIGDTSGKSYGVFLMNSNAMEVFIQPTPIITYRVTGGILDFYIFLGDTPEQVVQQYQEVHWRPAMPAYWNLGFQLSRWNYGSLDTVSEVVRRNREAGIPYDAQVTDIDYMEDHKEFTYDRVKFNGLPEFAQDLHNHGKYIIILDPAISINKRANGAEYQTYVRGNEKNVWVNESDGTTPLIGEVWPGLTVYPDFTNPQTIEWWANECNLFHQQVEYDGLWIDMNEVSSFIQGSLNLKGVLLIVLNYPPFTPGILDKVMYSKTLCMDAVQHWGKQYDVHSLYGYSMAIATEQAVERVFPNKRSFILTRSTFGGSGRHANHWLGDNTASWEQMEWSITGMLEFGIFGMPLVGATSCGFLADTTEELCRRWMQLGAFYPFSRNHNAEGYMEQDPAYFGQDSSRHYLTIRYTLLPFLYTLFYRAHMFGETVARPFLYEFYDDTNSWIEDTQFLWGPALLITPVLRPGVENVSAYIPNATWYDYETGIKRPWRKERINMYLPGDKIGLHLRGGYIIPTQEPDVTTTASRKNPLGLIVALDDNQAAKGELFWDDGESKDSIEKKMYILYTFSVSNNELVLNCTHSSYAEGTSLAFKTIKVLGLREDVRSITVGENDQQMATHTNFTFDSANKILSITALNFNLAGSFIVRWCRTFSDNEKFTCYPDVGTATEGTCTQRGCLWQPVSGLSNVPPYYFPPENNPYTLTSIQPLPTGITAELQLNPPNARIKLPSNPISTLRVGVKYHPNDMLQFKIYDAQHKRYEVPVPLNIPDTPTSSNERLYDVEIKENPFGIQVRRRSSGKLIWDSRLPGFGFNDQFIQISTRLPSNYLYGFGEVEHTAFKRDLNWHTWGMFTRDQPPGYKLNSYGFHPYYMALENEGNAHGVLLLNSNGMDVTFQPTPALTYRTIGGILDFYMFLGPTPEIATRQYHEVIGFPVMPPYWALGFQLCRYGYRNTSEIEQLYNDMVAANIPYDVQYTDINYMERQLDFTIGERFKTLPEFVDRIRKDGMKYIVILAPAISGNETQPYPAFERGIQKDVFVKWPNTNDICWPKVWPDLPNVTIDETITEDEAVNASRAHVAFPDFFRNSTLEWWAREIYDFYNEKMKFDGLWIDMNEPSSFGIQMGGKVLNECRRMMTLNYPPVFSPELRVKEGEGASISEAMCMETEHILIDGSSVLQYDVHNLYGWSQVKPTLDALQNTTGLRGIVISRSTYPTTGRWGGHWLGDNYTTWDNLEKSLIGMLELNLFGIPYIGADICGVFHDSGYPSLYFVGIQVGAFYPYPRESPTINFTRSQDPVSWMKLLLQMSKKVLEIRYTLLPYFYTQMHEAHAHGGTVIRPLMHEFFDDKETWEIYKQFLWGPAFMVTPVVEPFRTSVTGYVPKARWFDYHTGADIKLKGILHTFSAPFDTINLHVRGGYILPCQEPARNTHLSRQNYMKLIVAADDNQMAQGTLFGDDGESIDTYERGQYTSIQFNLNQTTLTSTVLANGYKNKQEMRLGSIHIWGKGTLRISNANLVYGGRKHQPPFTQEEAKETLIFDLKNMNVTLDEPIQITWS
Experimental: (§1) Rat intestinal brush border membrane vesicles were prepared, and a suspension in a 0.1M maleic acid salt buffer solution (pH6.0) was used as small intestinal α-glucosidase (maltase and saccharase).
(§2) 0.05 ml of sample compound solutions of differing concentration were added, respectively, to 0.1 ml of a substrate solution of sucrose (74 mM) and maltose (74 mM), and the solution was preheated at 37° C. for 2 to 3 minutes. 0.05 ml of an enzymatic solution was added thereto and the solution was allowed to incubate for 30 minutes. After incubation, 0.8 ml of water was added thereto and the solution was heated in a boiling water bath for 2 minutes to deactivate the enzyme. Blank was prepared as follows. After the enzymatic solution was added to each sample, water was immediately added, and the resulting mixture was heated in a boiling water bath for 2 minutes to deactivate the enzyme. The amount of d-glucose formed therein was measured using a glucose oxidase method. The substrate and test samples were dissolved in a 0.1M maleic acid buffer solution (pH6.0). The concentrations for 50% inhibition (IC50) were calculated based on the values obtained.

[2] = molecular target: small intestinal α-glucosidase (maltase); assay: Concentration for 50% inhibition, small intestinal α-glucosidase, maltose substrate; assay type: biochemical; conditions: rat intestinal brush border membrane vesicles; substrate maltose (74 mM); pH6.0; 37° C., 30 minutes
Experimental: as §1, §2

IC50 [1] [µM] | IC50 (μg/ml) Maltose [2] [µg/mL] | Structure (SMILES)
5.29 | 5.71 | OC[C@@H]1[C@@H](O)[C@H](O)C[S@@+]1C[C@@H](O)[C@@H](O)CO [Compound 1]
339 | 79.3 | C[S+]1C[C@H](O)[C@@H](O)[C@@H]1CO (stereo partly shown) [Compound 2]
